Results published in patent US20080268460A1, “Assays to Identify Irreversibly Binding Inhibitors of Receptor Tyrosine Kinases” (Wyeth, priority 2004, published 2008).

Experiments:
Assay type in all cases: biochemical
[1] = target: T1, KDR-FLAG enzyme (human KDR) (Homo sapiens, UniProt P35968); assay: Enzyme wash-out assay, KDR-FLAG enzyme; details: plate washed three times before ATP addition
T1 construct: starting at Met-806 (underlined) (5′-ATGGATCCAGATGAACTCCCATTG) and ending at Val-1356; made in house
T1 sequence (P35968 806-1356): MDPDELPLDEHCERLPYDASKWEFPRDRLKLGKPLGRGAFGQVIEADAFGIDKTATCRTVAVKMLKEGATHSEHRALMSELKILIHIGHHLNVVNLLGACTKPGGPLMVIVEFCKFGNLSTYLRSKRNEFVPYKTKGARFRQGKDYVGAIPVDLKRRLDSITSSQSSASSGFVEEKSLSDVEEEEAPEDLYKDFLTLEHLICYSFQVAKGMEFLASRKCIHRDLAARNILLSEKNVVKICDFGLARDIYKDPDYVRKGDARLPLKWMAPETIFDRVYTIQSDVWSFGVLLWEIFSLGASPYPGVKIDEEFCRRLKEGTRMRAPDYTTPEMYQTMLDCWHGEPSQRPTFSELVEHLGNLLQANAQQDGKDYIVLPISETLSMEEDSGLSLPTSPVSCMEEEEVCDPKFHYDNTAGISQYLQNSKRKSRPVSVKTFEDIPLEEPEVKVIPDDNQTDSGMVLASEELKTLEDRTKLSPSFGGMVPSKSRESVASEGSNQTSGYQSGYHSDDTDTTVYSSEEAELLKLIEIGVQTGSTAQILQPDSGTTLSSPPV
Method: (§1) Parallel plates were tested for each test compound wherein one plate was processed as described above in section 6.3 and the second plate was washed three times in 100 ul of 4 mM HEPES, pH 7.4, to remove unbound compound. 1× kinase buffer (30 ul 1 mM MnCl2, 4 mM HEPES, pH 7.4, 20 μM Na3VO4) and 20 ul of ATP/MgCl2 were then added to the wash-out plate. The KDR-FLAG enzyme, as described in 6.1, was used in these assays.

[2] = target: T2, KDR-IC-FLAG (human KDR, VEGF-receptor 2) (Homo sapiens, UniProt P35968); assay: KDR kinase enzyme assay (DELFIA) using KDR-IC-FLAG kinase, no wash-out; details: 10 uM ATP
T2 construct: starting at Met-806 (underlined) (5′-ATGGATCCAGATGAACTCCCATTG) and ending at Val-1356; made in house
T2 sequence (P35968 806-1356): as the sequence (P35968 806-1356) above
From the text: Controls were done by adding DMSO alone, i.e., no test compound, to wells containing the master mix of enzyme plus kinase buffer.

KDR-C1045A [3] = target: T3, KDR-C1045A (Homo sapiens, UniProt P35968, C1045A); assay: Basic enzyme assay, KDR-C1045A mutant enzyme
T3 construct: beginning at Val-805 (forward, 5′ tag cgg ccg cGT CATGGATCCAGATGAACTCCCATT (lower case—NotI site)) and ending at Val-1356; GST-His (thrombin cleavage site) (N); made in house; the mutant was also made in HEK293
T3 sequence (P35968 805-1356 C1045A): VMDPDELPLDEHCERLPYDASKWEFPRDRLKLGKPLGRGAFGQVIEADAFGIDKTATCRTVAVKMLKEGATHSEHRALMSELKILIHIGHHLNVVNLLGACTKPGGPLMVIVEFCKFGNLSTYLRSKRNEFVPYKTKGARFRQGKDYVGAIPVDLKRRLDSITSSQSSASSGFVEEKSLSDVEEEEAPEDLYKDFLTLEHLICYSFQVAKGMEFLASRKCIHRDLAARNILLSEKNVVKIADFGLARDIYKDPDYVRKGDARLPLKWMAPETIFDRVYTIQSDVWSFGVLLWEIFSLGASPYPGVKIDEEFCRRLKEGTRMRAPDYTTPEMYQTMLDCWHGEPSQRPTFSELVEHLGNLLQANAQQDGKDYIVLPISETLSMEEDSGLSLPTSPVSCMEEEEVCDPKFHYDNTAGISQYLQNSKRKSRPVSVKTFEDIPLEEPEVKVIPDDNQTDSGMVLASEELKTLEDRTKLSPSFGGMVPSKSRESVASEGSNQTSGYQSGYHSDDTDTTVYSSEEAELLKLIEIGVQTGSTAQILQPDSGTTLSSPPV
Method: (§2) The protein was expressed in HEK293 or Sf9 cells as described for the wild type protein in sections 6.1 and 6.2. The protein was also purified using the FLAG or GST/His tags.
(§3) This mutated protein was designated KDR-C1045A. Additionally, for comparison, the test compounds were assayed using the KDR wild type enzyme in both a basic enzyme assay as well as the enzyme wash-out assay.

KDR wild type enzyme [4] = target: T4, KDR wild type enzyme (Homo sapiens, UniProt P35968); assay: Basic enzyme assay, KDR wild type (GST-His-KDR-IC); details: mean ± standard deviation (N)
T4 construct: beginning at Val-805 (forward, 5′ tag cgg ccg cGT CATGGATCCAGATGAACTCCCATT (lower case—NotI site)) and ending at Val-1356; GST-His (thrombin cleavage site) (N, cleaved yes); made in house; HEK293 possible
T4 sequence (P35968 805-1356): as the sequence (P35968 805-1356 C1045A) above, with A241C counted along it
Method: as §3

KDR wild type enzyme [5] = target: T4, KDR wild type enzyme; assay: Enzyme wash-out assay, KDR wild type
Method: as §1, §3

KDR-C1045A [6] = target: T3, KDR-C1045A; assay: Enzyme wash-out assay, KDR-C1045A mutant enzyme
Method: as §1, §2, §3

IC50 [1] [nM] | IC50 [2] [nM] | loss of activity, mutant versus wild type KDR in basic enzyme assay (KDR-C1045A [3]; KDR-C1045A vs wild type) | IC50 (KDR-C1045A [3]; mean ± standard deviation (N)) [nM] | IC50 (KDR wild type enzyme [4]) [nM] | loss of activity upon wash out, wild type KDR (KDR wild type enzyme [5]; wash out vs no wash out) | IC50 (KDR wild type enzyme [5]; wash out, mean ± standard deviation (N)) [nM] | KDR-C1045A, WASH OUT percent inhibition at the high dose tested (KDR-C1045A [6]; high dose tested) [%] | IC50 (KDR-C1045A [6]; mean ± standard deviation (N)) [nM] | Structure (SMILES)
33.1 | 17.9 |  |  |  |  |  |  |  | COCCOc1cc2ncnc(NC3=C(Sc4nccs4)C(=O)C=C(OC)C3=O)c2cc1OC [5-methoxy-3-{[6-methoxy-7-(2-methoxyethoxy)quinazolin-4-yl]amino}-2-(1,3-thiazoylthio)benzo-1,4-quinone]
 |  | less than a five times loss of activity | 301 ± 140 | 63.2 ± 23.5 | partially washed out | 277 | 33 | > 1000 | COc1cc2c(Oc3ccc4[nH]c(C)cc4c3F)c(C#N)cnc2cc1OCC1CCN(C)CC1 [4-[(4-fluoro-2-methyl-1H-indol-5-yl)oxy]-6-methoxy-7-[(1-methylpiperidin-4-yl)methoxy]quinoline-3-carbonitrile]
